The record followed here is patent US20220227796A1, “EGFR INHIBITORS, COMPOSITIONS AND METHODS THERE OF” (Betta Pharmaceuticals Co., Ltd., priority 2019, published 2022).

Holding throughout (assay type): cell-based
In experiment [1] the test system is H1975(L858R/T790M). Briefly: H1975 cells proliferation assay. To be noted: for IC50: Homo sapiens, NCI-H1975, cell proliferation, 72 h, CellTiter Glo, numeric values, read-out: H1975 IC50; for inhibition of double mutant (L858R/T790M): summary in words of Table 2. The method in brief:
(§1)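 HCC827 (2500 cells/well) and H1975 (2000 cells/well) cells seeded in 96-well plates and exposed to compounds for 72 h at 37° C, 5% CO2; 0.5% DMSO medium as blank. Viability by CellTiter-Glo luminescence; IC50 from four-parameter logistic fit.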
On the technique in general: ATP-based viability assays read luminescence as a measure of living cells.

Experiment [2] deals with HCC827(Δ19del). Briefly: HCC827 cells proliferation assay. The conditions noted are these: Homo sapiens, HCC827; cell proliferation, 72 h, CellTiter Glo; numeric values; read-out: HCC827 IC50. In outline:
as §1

In experiment [3] the target is T1, Ba/F3-L858R/T790M/C797S (Homo sapiens, UniProt P00533, T790M/C797S/L858R, cells depend on it).
T1 construct: BaF3 L858R/T790M/C797S IC50; other: cell proliferation, 72 h, CellTiter Glo; class symbols; numeric values
T1 sequence (P00533 whole entry T790M/C797S/L858R): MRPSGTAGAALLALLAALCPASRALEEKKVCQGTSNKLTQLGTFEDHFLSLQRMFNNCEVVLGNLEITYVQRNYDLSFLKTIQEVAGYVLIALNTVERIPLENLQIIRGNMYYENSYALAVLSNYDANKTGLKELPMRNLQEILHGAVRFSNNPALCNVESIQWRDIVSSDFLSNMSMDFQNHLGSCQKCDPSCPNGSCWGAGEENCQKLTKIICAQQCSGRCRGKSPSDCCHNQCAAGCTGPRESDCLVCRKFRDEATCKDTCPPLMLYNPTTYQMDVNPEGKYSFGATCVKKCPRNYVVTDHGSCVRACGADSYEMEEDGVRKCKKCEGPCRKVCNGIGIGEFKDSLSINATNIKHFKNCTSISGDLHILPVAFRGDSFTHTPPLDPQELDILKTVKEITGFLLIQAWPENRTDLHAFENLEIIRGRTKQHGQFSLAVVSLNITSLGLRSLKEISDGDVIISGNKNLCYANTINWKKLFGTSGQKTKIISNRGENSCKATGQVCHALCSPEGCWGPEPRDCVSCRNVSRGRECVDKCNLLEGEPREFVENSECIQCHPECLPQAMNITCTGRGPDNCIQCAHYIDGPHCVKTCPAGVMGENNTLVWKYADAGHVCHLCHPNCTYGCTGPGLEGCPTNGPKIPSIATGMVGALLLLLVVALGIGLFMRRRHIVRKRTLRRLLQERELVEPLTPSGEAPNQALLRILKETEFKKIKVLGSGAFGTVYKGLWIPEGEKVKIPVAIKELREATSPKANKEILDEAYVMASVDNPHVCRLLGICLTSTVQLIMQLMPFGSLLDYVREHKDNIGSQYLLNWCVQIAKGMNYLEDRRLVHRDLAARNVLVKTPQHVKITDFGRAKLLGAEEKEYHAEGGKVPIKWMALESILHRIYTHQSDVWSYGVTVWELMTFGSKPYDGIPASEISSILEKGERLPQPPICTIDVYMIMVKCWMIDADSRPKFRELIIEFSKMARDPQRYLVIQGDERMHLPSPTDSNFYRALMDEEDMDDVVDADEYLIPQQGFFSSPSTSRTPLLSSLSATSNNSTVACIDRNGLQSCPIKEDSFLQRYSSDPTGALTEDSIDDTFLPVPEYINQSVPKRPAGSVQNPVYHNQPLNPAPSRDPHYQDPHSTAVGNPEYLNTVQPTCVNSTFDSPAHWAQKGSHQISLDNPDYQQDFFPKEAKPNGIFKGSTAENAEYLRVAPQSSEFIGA
Briefly: Ba/F3-L858R/T790M/C797S cells proliferation assay. The conditions noted are these: cell proliferation, 72 h, CellTiter Glo, read-out: BaF3 L858R/T790M/C797S IC50. The protocol:
(§2) a) The medium was preheated in a 37 water bath in advance.
(§3) b) Remove the cryogenic vials from the liquid nitrogen tank, quickly put it into a 37° C. water bath, and completely melt it in 1 min.
(§4) c) Transfer the cell suspension to a 15 mL centrifuge tube containing 8 mL medium, centrifuge 1000 rpm, 5 min,
(§5) d) Discard the supernatant, resuspend the cells in 1 mL medium, and transfer to a 75 cm^2 flask containing 15 mL medium, culture the cells in an incubator at 37° C., 5% CO2.
(§6) a) The medium was preheated in a 37° C.; water bath in advance.
(§7) b) Collect cell to a 15 mL centrifuged tube, centrifuge at 1000 rpm for 5 min. Discard the supernatant, count, and make the cell density at 1×10^4 cells/mL, then place it in a 37° C., 5% CO2 incubator.
(§8) b) The above compound solution was diluted 1:20 times with culture medium to prepare a 10 fold working solution;
(§9) a) Take cells in log phase growth, centrifuge at 1000 rpm for 5 min, then resuspend the cells with culture medium, then count cells;
(§10) b) Cells were seeded to 96-well cell culture plate with density at 2000 cells/well;
(§11) The blank control well was a culture medium (0.5% DMSO);
(§12) b) The cells were incubated for an additional 72 h in the incubator.
(§13) a) Remove the 96-well cell culture plate and add 50 μl of CTG reagent (CellTiter Glo kit, promega, Cat #G7573).
(§14) b) Plate was shaked for 2 min and then let it cool for 10 min at room temperature.
(§15) c) The Luminescence signal value was read using a PerkinElmer reader.
(§16) Experimental Data Analysis
(§17) Data were analyzed using GraphPad Prism 6.0 software to obtain a fitted curve of compound activity.
(§18) Y=Bottom+(Top−Bottom)/(1+10^((Log IC50−X)*Hill Slope));
(§19) The cells proliferation assay results are expressed with IC50, shown as Table 2.

The target of experiment [4] is T2, Ba/F3-L858R/T790M/C797S (Homo sapiens, UniProt P00533, T790M/C797S, cells depend on it, form not given).
T2 construct: covers both
T2 sequence (P00533 whole entry T790M/C797S/L858R, form open): as the sequence (P00533 whole entry T790M/C797S/L858R) above
Briefly: Ba/F3-L858R/T790M/C797S cells proliferation assay. To be noted: summary in words of Table 2; covers both Ba/F3 triple mutant lines. The procedure:
as §2, §3, §4, §5, §6, §7, §8, §9, §10, §11, §12, §13, §14, §15, §16, §17, §18, §19

The target of experiment [5] is Ba/F3-Δ19del/T790M/C797S (Homo sapiens, UniProt P00533, T790M/C797S, cells depend on it, form not given). Kind of experiment: Ba/F3-Δ19del/T790M/C797S cells proliferation assay. To be noted: cell proliferation, 72 h, CellTiter Glo, read-out: BaF3 Δ 19del/T790M/C797S IC50. The protocol:
as §2, §3, §4, §5, §6, §7, §8, §9, §10, §11, §12, §13, §14, §15, §16, §17, §18, §19

Where two headings read alike, the source gives them in different places.

Chain of Ba/F3-Δ19del/T790M/C797S (P00533 with tags, fused parts or gaps DEL746-750/T790M/C797S, form open): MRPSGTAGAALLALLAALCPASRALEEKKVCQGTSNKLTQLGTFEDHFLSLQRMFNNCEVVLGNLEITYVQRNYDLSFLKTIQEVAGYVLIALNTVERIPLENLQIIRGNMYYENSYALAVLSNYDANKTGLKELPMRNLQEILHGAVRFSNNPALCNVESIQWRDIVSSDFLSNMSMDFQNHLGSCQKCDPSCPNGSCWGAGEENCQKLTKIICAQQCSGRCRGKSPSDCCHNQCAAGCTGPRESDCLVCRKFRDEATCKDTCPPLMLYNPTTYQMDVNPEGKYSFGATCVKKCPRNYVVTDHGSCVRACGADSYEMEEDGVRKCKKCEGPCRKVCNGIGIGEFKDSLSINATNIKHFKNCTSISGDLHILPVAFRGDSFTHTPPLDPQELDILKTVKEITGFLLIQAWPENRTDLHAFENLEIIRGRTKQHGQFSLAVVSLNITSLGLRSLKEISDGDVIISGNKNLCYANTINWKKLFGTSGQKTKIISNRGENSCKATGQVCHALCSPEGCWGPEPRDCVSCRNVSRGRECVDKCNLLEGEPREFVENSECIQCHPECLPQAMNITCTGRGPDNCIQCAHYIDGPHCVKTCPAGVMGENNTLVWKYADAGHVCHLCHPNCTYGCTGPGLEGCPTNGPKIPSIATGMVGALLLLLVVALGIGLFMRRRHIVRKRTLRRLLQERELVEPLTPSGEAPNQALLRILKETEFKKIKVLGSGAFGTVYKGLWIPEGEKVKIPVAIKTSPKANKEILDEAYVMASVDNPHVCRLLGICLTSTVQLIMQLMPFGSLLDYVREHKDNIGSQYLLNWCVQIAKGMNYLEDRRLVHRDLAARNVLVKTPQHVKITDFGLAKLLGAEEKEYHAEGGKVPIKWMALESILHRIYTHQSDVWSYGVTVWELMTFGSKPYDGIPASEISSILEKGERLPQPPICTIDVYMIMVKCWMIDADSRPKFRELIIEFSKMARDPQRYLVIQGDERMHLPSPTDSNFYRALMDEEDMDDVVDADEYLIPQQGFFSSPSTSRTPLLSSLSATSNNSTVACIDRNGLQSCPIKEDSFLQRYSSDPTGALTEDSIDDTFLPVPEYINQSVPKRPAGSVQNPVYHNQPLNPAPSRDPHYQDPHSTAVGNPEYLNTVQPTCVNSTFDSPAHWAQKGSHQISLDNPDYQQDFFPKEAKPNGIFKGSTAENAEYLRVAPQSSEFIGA

In the case of `CCN1CC2(C1)CN(c1ccc(Nc3ncc(Cl)c(Nc4ccccc4P(C)(C)=O)n3)cc1C)C2` [Comparative compound A, (2-((5-chloro-2-((4-(6-ethyl-2,6-diazaspiro[3.3]heptan-2-yl)-3-methylphenyl)amino)pyrimidin-4-yl)amino)phenyl)dimethylphosphine oxide, reference compound], the figures for the IC50 in experiment [1] and in experiment [2] were 61.7 nM and 89.5 nM, respectively. Further, the “inhibition of double mutant (L858R/T790M)” value in experiment [1] was “relatively low inhibition”. For the same molecule, the GI50 in experiment [3] (class symbols) and in experiment [5] (class symbols) was less than 10 nM each time. Moreover, the “inhibition of triple mutant (L858R/T790M/C797S or Δ19del/T790M/C797S)” value in experiment [4] is “higher inhibition”.
Turning to `COc1cc(N2CCC(N3CCN(C)CC3)CC2)c(C)cc1Nc1ncc(Br)c(Nc2ccc3nccnc3c2P(C)(C)=O)n1` [Comparative compound C, (6-((5-bromo-2-((2-methoxy-5-methyl-4-(4-(4-methylpiperazin-1-yl)piperidin-1-yl)phenyl)amino)pyrimidin-4-yl)amino)quinoxalin-5-yl)dimethylphosphine oxide, reference compound], in experiment [1], the IC50 came out at 71.4 nM and the “inhibition of double mutant (L858R/T790M)” value is recorded as “relatively low inhibition”. Also, the GI50 in experiment [3] (numeric values) amounted to 16.8 nM. Moreover, in experiment [4], the “inhibition of triple mutant (L858R/T790M/C797S or Δ19del/T790M/C797S)” value is listed as “higher inhibition”. Further, the GI50 in experiment [5] (numeric values) worked out at 9.6 nM.
For `CCc1cc(Nc2ncc(Br)c(Nc3ccc4nccnc4c3P(C)(C)=O)n2)c(OC)cc1N1CCC(N2CCN(C)CC2)CC1` [Comparative compound D, (6-((5-bromo-2-((5-ethyl-2-methoxy-4-(4-(4-methylpiperazin-1-yl)piperidin-1-yl)phenyl)amino)pyrimidin-4-yl)amino)quinoxalin-5-yl)dimethylphosphine oxide, reference compound], in that order: 83.6 nM, “relatively low inhibition”, 12.9 nM, “higher inhibition” and 5.7 nM.

By IC50 is commonly meant the concentration needed to halve the response being measured.
